Results as given in paper PMC3129543 (Molecular informatics, 2011).
Where two headings read alike, the source gives them in different places.

Legend:
[1] = 1 and derivatives thereof; cited from earlier work
[2] = molecular target: T1, glutamate racemase from Bacillus subtilis (RacE) (Bacillus subtilis, UniProt P94556); type: biochemical
[3] = 1 and derivatives thereof; target not determined; cited from earlier work
[4] = molecular target: T1, glutamate racemase from Bacillus subtilis (RacE); conditions: BsGR; presented previously; cited from earlier work

T1 sequence (P94556 whole entry): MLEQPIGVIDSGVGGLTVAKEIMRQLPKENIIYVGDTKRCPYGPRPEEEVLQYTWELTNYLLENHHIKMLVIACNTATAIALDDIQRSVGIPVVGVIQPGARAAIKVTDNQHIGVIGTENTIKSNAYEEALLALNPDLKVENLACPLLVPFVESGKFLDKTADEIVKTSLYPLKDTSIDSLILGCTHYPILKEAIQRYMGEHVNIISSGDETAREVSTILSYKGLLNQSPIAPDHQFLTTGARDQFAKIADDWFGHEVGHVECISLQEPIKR

Row | SMILES | toxicity [1] | ligand efficiency [2] [kcal/mol/heavy atom] | mode of inhibition ([2]; verified by global fitting to varying inhibition models) | antibacterial and antifungal activity [3] | mode of inhibition [4]
1 | O=S(=O)(O)c1nc2ccccc2[nH]1 [Compound 1, benzimidazole-2-sulfonic acid] | low toxicity | 0.53 | competitive inhibitor | antibacterial and antifungal activity | 
2 | O=c1c(O)c(O)c(=O)c1=O [Compound 2, Croconic acid] |  |  |  |  | competitive inhibitors
3 | O=S(=O)(O)c1ccc(O)c(S(=O)(=O)O)c1 [Compound 3, 4-Hydroxy-1,3-benzenedisulfonic acid] |  |  |  |  | competitive inhibitors
4 | O=C(O)c1cccc(C(=O)O)n1 [Compound 9, dipicolinic acid] |  |  |  |  | competitive inhibitors
